Patent US5750354A, “Lipoxin transport system and uses therefor” (priority 1994, dated 1998)
Values joined by “and” are separate entries in the source; they are usually repeats but may differ in a detail not shown here. Equal entries are not always repeated. “Also recorded” adds a separate entry of the source. Where two headings read alike, the source gives them in different places.

Assays:
lipoxin transport system [1] = test: [3H]LXA4 influx into human neutrophils (unidirectional tracer flux); settings: for [3H]LXA4 Influx in presence of eicosanoid / IC50: uptake at 10 and 20 min; for initial [3H]LXA4 influx rate in presence of drug: 5 nM LXA4; for effect on uptake of [3H]LXA4: each at 0.2-0.5 mM; for IC50: read-out: K0.5, concentration at which 50% of lipoxin transport is inhibited, drug 0-500 μM, Michaelis-Menten inhibition kinetics
lipoxin transport system [2] = test: Irreversible inhibition of [3H]LXA4 influx after pretreatment of neutrophils with sulfhydryl-reactive agents; assay type: cell-based, human
lipoxin transport system [3] = settings: not told
human neutrophils [4] = test: [3H]LXA4 methyl ester influx into human neutrophils; assay type: cell-based; settings: for effect of drugs on [3H]LXA4 ME influx: DISA 0.5 mM, PCP 0.4 mM, mersalyl 0.5 mM
Description: Incubations were performed at 37° C. in capped, plastic tubes (Falcon Plastics, Oxnard, Calif.) under various experimental conditions (neutrophils 15-20×10^6 /ml). […] At stated intervals, duplicate aliquots of the cell suspensions were layered onto 0.5 ml of silicone oil (Versilube F-5, General Electric Corp., Waterford, N.Y.) contained in 1.5 ml plastic tubes and centrifuged for 1 min at 8,000 g in a microcentrifuge (Beckman Instruments, Fullerton, Calif.).
The aqueous and oil phases were aspirated and discarded. […] Influx is expressed here as fmol/10^6 cells/min whereas flux rates in all previous work from our laboratory (L.S.) have been reported in meq/liter of cell water.min.
(§1) Influx rates were calculated by fitting the data points to a single exponential equation (Eq. 1). Results have been taken from three experiments based upon duplicate determinations. […] Specific binding was taken as the difference between total and non-specific binding. […] Results are from three separate experiments, each performed in triplicate.

[5] = molecular target: T1, specific lipoxin receptors (Homo sapiens, UniProt P25090); test: [3H]LXA4 ligand binding to human neutrophils
T1 sequence (P25090 1-351): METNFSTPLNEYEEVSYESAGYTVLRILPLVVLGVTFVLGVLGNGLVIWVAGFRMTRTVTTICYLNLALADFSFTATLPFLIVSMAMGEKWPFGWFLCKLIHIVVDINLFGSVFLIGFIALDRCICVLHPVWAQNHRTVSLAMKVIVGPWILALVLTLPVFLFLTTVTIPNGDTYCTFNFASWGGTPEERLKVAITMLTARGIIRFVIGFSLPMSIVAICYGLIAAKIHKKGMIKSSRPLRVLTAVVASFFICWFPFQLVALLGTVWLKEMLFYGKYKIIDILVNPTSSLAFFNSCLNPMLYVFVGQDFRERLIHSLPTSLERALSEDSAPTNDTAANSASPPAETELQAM
Description: as §1

human neutrophils [6] = system: human neutrophils
[7] = combined: 0.5 mM DISA, 0.4 mM PCP, pHo 8.40
[8] = combined: 0.5 mM mersalyl, pHo 6.40

`CCCCCCCCCCCCCC(=O)O[C@@H]1[C@@H](C)[C@@]2(O)[C@@H](C=C(CO)C[C@@]3(O)C(=O)C(C)=C[C@@H]23)[C@@H]2C(C)(C)[C@]12OC(C)=O` [4-α-PMA] was tested, and the “effect on lipoxin uptake” value (lipoxin transport system [1]; biologically inactive isomer of PMA) was “no effect”.

For `CCCCC[C@H](O)/C=C/C=C\C/C=C\C/C=C\CCCC(=O)O` [15-HETE, (15S)-hydroxy-5,8,11-cis-13-trans-eicosatetraenoic acid], the “[3H]LXA4 Influx in presence of eicosanoid” value (“[3H]LXA4 Influx in presence” for short) (lipoxin transport system [1]; eicosanoid 10 nM) was 0.73 ± 0.05 fmol/10^6 cells/min, the “[3H]LXA4 Influx in presence” value (lipoxin transport system [1]; eicosanoid 30 nM) was 0.69 ± 0.05 fmol/10^6 cells/min and the “[3H]LXA4 Influx in presence” value (lipoxin transport system [1]; eicosanoid 100 nM) was 0.71 ± 0.06 fmol/10^6 cells/min.

In the case of `CNc1ccc2oc(C[C@H]3O[C@@]4(CC[C@H]3C)O[C@H]([C@H](C)C(=O)c3ccc[nH]3)[C@H](C)C[C@H]4C)nc2c1C(=O)O` [A23187], the “enhancement of lipoxin uptake” value (lipoxin transport system [1]; 1 μM) is reported as ~ 1.5 fold.

`CCCCC/C=C\C/C=C\C/C=C\C/C=C\CCCC(=O)O` [Arachidonic Acid, arachidonic acid] was tested, and the “[3H]LXA4 Influx in presence” value (lipoxin transport system [1]; eicosanoid 10 nM) was 0.69 ± 0.03 fmol/10^6 cells/min, the “[3H]LXA4 Influx in presence” value (lipoxin transport system [1]; eicosanoid 30 nM) was 0.66 ± 0.02 fmol/10^6 cells/min and the “[3H]LXA4 Influx in presence” value (lipoxin transport system [1]; eicosanoid 100 nM) was 0.70 ± 0.02 fmol/10^6 cells/min.

In the case of `O=C1OC2(c3ccc(N4C(=O)C=CC4=O)cc31)c1cc(Br)c(O)c(Br)c1Oc1c2cc(Br)c(O)c1Br` [Eosin-5-maleimide, eosin-5-maleimide], the “% Inhibition of Transport (irreversible)” value (lipoxin transport system [2]; 0.50 mM, pretreatment 30 min at 4° C., washed, influx at 37° C.) is reported as 19 ± 6%.

`CCCCC/C=C\C[C@@H](O)/C=C/C=C/C=C\[C@@H](O)CCCC(=O)O` [LTB4, (5S,12R)-dihydroxy-6,14-cis-8,10-trans-eicosatetraenoic acid] was tested, and the “transport by the lipoxin transport system” value (lipoxin transport system [3]) was “not transported”, the “[3H]LXA4 Influx in presence” value (lipoxin transport system [1]; eicosanoid 10 nM) was 0.67 ± 0.04 fmol/10^6 cells/min and the “[3H]LXA4 Influx in presence” value (lipoxin transport system [1]; eicosanoid 30 nM) was 0.64 ± 0.04 fmol/10^6 cells/min. The “[3H]LXA4 Influx in presence” value (lipoxin transport system [1]; eicosanoid 100 nM) was 0.70 ± 0.06 fmol/10^6 cells/min.

In the case of `CCCCC/C=C\C\C=C/C=C/C=C/[C@@H](SC[C@H](NC(=O)CC[C@H](N)C(=O)O)C(=O)NCC(=O)O)[C@@H](O)CCCC(=O)O` [LTC4, (5S)-hydroxy-(6R)-S-glutathionyl-7,9-trans-11,14-cis-eicosatetraenoic acid], the “transport by the lipoxin transport system” value (lipoxin transport system [3]) is reported as “not transported”, the “[3H]LXA4 Influx in presence” value (lipoxin transport system [1]; eicosanoid 10 nM) is reported as 0.70 ± 0.05 fmol/10^6 cells/min and the “[3H]LXA4 Influx in presence” value (lipoxin transport system [1]; eicosanoid 30 nM) is reported as 0.76 ± 0.05 fmol/10^6 cells/min. For the same molecule, the “[3H]LXA4 Influx in presence” value (lipoxin transport system [1]; eicosanoid 100 nM) was 0.78 ± 0.07 fmol/10^6 cells/min.

With `CCCCC/C=C\C\C=C/C=C/C=C/[C@@H](SC[C@H](N)C(=O)NCC(=O)O)[C@@H](O)CCCC(=O)O` [LTD4, (5S)-hydroxy-(6R)-S-cysteinylglycyl-7,9-trans-11,14-ciseicosatetraenoic acid] the “transport by the lipoxin transport system” value (lipoxin transport system [3]) was “not transported”, the “[3H]LXA4 Influx in presence” value (lipoxin transport system [1]; eicosanoid 10 nM) was 0.63 ± 0.03 fmol/10^6 cells/min and the “[3H]LXA4 Influx in presence” value (lipoxin transport system [1]; eicosanoid 30 nM) was 0.59 ± 0.04 fmol/10^6 cells/min. For the same molecule, the “[3H]LXA4 Influx in presence” value (lipoxin transport system [1]; eicosanoid 100 nM) was 0.61 ± 0.03 fmol/10^6 cells/min.

With `CCCCC[C@H](O)/C=C/C=C\C=C\C=C\[C@@H](O)[C@@H](O)CCCC(=O)OC` [LXA4 ME, lipoxin A4 methyl ester] the “[3H]LXA4 ME Influx” value (human neutrophils [4]; Medium, 5 nM, 37° C., 15 s intervals through 1 min) was 535±136 fmol/10^6 cells/min, the “influx rate relative to LXA4 free acid” value (human neutrophils [4]; medium alone) was 1,000 fold faster and the “[3H]LXA4 ME Influx” value (human neutrophils [4]; pHo 6.40) was 465 ± 45 fmol/10^6 cells/min. The “[3H]LXA4 ME Influx” value (human neutrophils [4]; pHo 8.40) was 553 ± 129 fmol/10^6 cells/min.

In the case of `Oc1c(Cl)c(Cl)c(Cl)c(Cl)c1Cl` [PCP, pentachlorophenol], the “[3H]LXA4 Binding, non-specific, in presence of drug” value [5] is reported as 0.36 ± 0.04 fmol/10^6 cells, the “[3H]LXA4 Binding, total, in presence of drug” value [5] is reported as 1.18 ± 0.04 fmol/10^6 cells and the “effect on binding of lipoxin to specific receptors” value (shortened to “effect on binding of lipoxin”) [5] is reported as “not inhibitable”. The “efflux final value (relative cell content, combined data set)” value (human neutrophils [6]; [7]) was 0.46±0.02, the “efflux rate coefficient (combined data set)” value (human neutrophils [6]; [7]) was 0.098 ± 0.008 min⁻¹ and the “[3H]LXA4 ME Influx in presence of drug” value (human neutrophils [4]; 0.4 mM drug) was 439 ± 63 fmol/10^6 cells/min. The “effect of drugs on [3H]LXA4 ME influx” value (human neutrophils [4]) was “completely resistant”, the “inhibition of [3H]LXA4 influx” value (lipoxin transport system [1]; 0.4 mM drug) was 97% and > 80% and the “initial [3H]LXA4 influx rate in presence of drug” value (from here on “initial [3H]LXA4 influx rate”) (lipoxin transport system [1]; 0.4 mM drug) was 0.015±0.004 fmol/10^6 cells/min. The “effect on uptake of [3H]LXA4” value (lipoxin transport system [1]) was “inhibited the uptake” and the IC50 (lipoxin transport system [1]) was 25 ± 5 µM.

`CCCCC[C@H](O)/C=C/[C@H]1[C@H](O)CC(=O)[C@@H]1C/C=C\CCCC(=O)O` [PGE2, prostaglandin E2] was tested, and the “[3H]LXA4 Influx in presence” value (lipoxin transport system [1]; eicosanoid 10 nM) was 0.58 ± 0.03 fmol/10^6 cells/min, the “[3H]LXA4 Influx in presence” value (lipoxin transport system [1]; eicosanoid 30 nM) was 0.59 ± 0.03 fmol/10^6 cells/min and the “[3H]LXA4 Influx in presence” value (lipoxin transport system [1]; eicosanoid 100 nM) was 0.60 ± 0.03 fmol/10^6 cells/min.

In the case of `CCCCCCCCCCCCCC(=O)O[C@@H]1[C@@H](C)[C@@]2(O)[C@@H](C=C(CO)C[C@]3(O)C(=O)C(C)=C[C@@H]23)[C@@H]2C(C)(C)[C@]12OC(C)=O` [PMA, phorbol myristate acetate], the “increase in initial rate of [3H]LXA4 influx” value (lipoxin transport system [1]; 100 nM) is reported as ~ 4 fold.

For `N#CC(=Cc1cn(-c2ccccc2)c2ccccc12)C(=O)O` [UK-5099, α-cyano-β-(1-phenylindol-3-yl)acrylic acid], the “effect on binding of lipoxin” value [5] was “not inhibitable”, the “inhibition of [3H]LXA4 influx” value (lipoxin transport system [1]; 0.2 mM drug) was 95% and the “initial [3H]LXA4 influx rate” value (lipoxin transport system [1]; 0.2 mM drug) was 0.030±0.009 fmol/10^6 cells/min. The “effect on uptake of [3H]LXA4” value (lipoxin transport system [1]) was “inhibited the uptake”.

In the case of `O=C(O)c1ccccc1Nc1ccccc1` [diphenylamine-2-carboxylate, diphenylamine-2-carboxylic acid], the “inhibition of [3H]LXA4 influx” value (lipoxin transport system [1]; 0.5 mM drug) is reported as > 85%.

With `O=C(O)CI` [iodoacetate, iodoacetic acid] the “effect of SH-reactive compounds on [3H]LXA4 influx” value (lipoxin transport system [1]; 1 mM NEM, 0.4 mM iodoacetate) was “lacked efficacy; also recorded: do not inhibit”.

In the case of `COC(CNC(=O)c1ccccc1OCC(=O)O)[CH2][Hg][OH]` (centres unmarked) [mersalyl], the “effect on binding of lipoxin” value [5] is reported as “not inhibitable”, the “[3H]LXA4 Binding, non-specific, in presence of drug” value ([5]; 0.5 mM drug, + unlabeled LXA4 0.3 μM) is reported as 0.39 ± 0.03 fmol/10^6 cells and the “[3H]LXA4 Binding, total, in presence of drug” value ([5]; 0.5 mM drug, no unlabeled LXA4) is reported as 1.13 ± 0.05 fmol/10^6 cells. The “efflux final value (relative cell content, combined data)” value (human neutrophils [6]; [8]) was 0.56±0.03, the “efflux rate coefficient (combined data)” value (human neutrophils [6]; [8]) was 0.079 ± 0.012 min⁻¹ and the “% Inhibition of Transport (irreversible)” value (lipoxin transport system [2]) was ~ 65% and 67 ± 5%. The “[3H]LXA4 ME Influx in presence of drug” value (human neutrophils [4]; 0.5 mM drug) was 500 ± 184 fmol/10^6 cells/min, the “effect of drugs on [3H]LXA4 ME influx” value (human neutrophils [4]) was “completely resistant” and the “inhibition of [3H]LXA4 influx” value (lipoxin transport system [1]; 0.5 mM drug) was 82% and > 80%. For the same molecule, the “initial [3H]LXA4 influx rate” value (lipoxin transport system [1]; 0.5 mM drug) was 0.10±0.01 fmol/10^6 cells/min, the “effect on uptake of [3H]LXA4” value (lipoxin transport system [1]) was “inhibited the uptake” and the IC50 (lipoxin transport system [1]) was 112 ± 33 µM.

With `O=C(O)c1cccnc1Nc1cccc(C(F)(F)F)c1` [niflumate, niflumic acid] the “inhibition of [3H]LXA4 influx” value (lipoxin transport system [1]; 0.2 mM drug) was > 85%.
